Results: PMC8745263 (International Journal of Molecular Sciences, 2021)

Molecular target: T1, APEH partially purified from human blood cells (Homo sapiens, UniProt P13798)
T1 construct: incubated with APEH partially purified from human blood cells; from tissue; host or cells: human red blood cells (erythrocyte hemolysate from donors' blood)
T1 sequence (P13798 1-732): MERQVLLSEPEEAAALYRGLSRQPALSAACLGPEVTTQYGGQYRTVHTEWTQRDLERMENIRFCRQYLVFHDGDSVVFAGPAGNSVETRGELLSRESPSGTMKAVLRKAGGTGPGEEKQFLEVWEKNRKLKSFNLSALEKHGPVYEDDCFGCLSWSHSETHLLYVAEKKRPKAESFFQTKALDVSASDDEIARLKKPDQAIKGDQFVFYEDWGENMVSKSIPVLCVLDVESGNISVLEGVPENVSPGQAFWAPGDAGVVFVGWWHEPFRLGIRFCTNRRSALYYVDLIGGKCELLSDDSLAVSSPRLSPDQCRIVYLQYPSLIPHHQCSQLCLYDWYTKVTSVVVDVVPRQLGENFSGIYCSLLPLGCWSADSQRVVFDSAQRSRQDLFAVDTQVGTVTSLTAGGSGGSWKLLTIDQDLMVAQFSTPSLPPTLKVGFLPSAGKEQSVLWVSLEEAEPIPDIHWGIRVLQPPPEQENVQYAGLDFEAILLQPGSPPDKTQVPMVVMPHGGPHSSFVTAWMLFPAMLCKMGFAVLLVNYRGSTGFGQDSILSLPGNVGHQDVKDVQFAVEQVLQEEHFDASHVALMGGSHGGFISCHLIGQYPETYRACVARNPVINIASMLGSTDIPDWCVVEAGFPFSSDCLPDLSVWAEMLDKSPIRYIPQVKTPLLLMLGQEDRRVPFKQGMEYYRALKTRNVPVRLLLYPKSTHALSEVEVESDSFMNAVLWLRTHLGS
Assay: Treatment of peptides with APEH and assessment of proteolysis by LC-MS
Type: biochemical
Conditions: APEH 0.7 μg, 37 °C, 48 h; for % Degradation (overall % of peptide degraded upon exposure to APEH): sum of fragment % of Table 2(a), Tris-HCl 25 mM pH 7.5, N.D. = not degraded
Experimental: In order to identify the potential cleavage sites of APEH on the oxidized GDF11[48-64], the peptide was incubated alone or in combination with the enzyme and the corresponding reaction mixtures were analyzed by LC-MS. The same experiments were performed using the non-oxidized analogues as control.
Blood samples were taken from donors using syringes with heparin. In accordance with ethical principles stated in the Declaration of Helsinki, as well as with approved national and international guidelines for human research, a written informed consent was obtained from participants. The erythrocytes were separated from the plasma by centrifugation at 1800× g for 5 min at 4 °C and washed twice with an isotonic solution (10 mM Tris-HCl pH 7.6, […]; 4 °C). Lysis of erythrocytes was carried out by incubation in hypotonic solution (25 mM Tris/HCl, pH 7.5) for 30 min on ice. The hemolysate was obtained by centrifugation of the lysate at 9200× g for 40 min at 4 °C. Then, the ‘soluble fraction’ was loaded onto a DEAE Sepharose Fast Flow column, connected to an AKTA FPLC system (Amersham Biosciences, Amersham, UK), previously equilibrated in 25 mM Tris-HCl (pH 7.5) (buffer A). The bound proteins were eluted using a linear ionic strength gradient (0–100%) of 1 M NaCl in buffer A at a flow rate of 1 mL min^−1. The active fractions were collected, pooled, dialyzed against 25 mM Tris-HCl pH 7.5 and loaded on a Superdex 200 PC 3.2/30 column (Pharmacia Biotech, Stockholm, Sweden) connected to a SMART System (Pharmacia Biotech, Stockholm, Sweden). The bound proteins were eluted with 25 mM Tris-HCl buffer, pH 7.5, containing 50 mM NaCl, at a flow rate of 0.1 mL min^−1. The active fractions were collected, pooled, dialyzed against 25 mM Tris-HCl pH 7.5 and stored in the same buffer supplemented with 5% glycerol. Enzyme purification was monitored using Ac-Met-7-amino-4-methylcoumarin (AMC) as substrate. Active fractions were analyzed by SDS-PAGE (12%) in order to evaluate the enrichment of the protein during the various purification steps. The protein was also characterized by Western Blot analysis. Aliquots of protein samples were subjected to SDS-PAGE (8%), and then electroblotted onto PVDF membranes (ImmobilonTM, Millipore, Milan, Italy). Membranes were next incubated with the specific primary antibody (sc-102311, 1:5000, Santa Cruz Biotechnology, USA) and then with the horseradish peroxidase-conjugated secondary antibody for 1 h at 37 °C (1:5000, Santa Cruz Biotechnology, Dallas, TX, USA). The immune complexes formed were visualized by enhanced chemiluminescence and autoradiography, according to the manufacturer’s protocol (Amersham Biosciences, Amersham, UK). Molecular mass of the native enzyme was established by gel filtration chromatography on a Superdex 200 PC 3.2/30 column (Pharmacia Biotech, Stockholm, Sweden), connected to a SMART system (Pharmacia Biotech, Stockholm, Sweden), and calibrated with BioRad gel filtration standards (BioRad, Milano, Italy; code 151-1901). The enzyme inhibition assay was performed on APEH preparation using the selective and potent inhibitor AA74-1 (SML0358, Sigma-Aldrich, Milano, Italy). Mixtures containing appropriate amount of inhibitor (62 µM) and APEH sample (0.7 μg) were pre-incubated for 30 min at 37 °C; then the substrate Ac-Met-7-amino-4-methylcoumarin (AMC) was added to the assay mixture and the enzymatic activity was followed as previously described. Control samples were prepared by pre-incubating the same amounts of APEH without the inhibitor and then assayed following the same procedure.
In total, 10 nmol/200 μL of each molecule was incubated with APEH partially purified from human blood cells (0.7 μg, 24.000 total units) at 37 °C for 48 h in Tris-HCl 25 mM pH 7.5. […]

[1] = 10 nmol/200 μL peptide, Tris-HCl 25 mM pH 7.5, EIC peak areas, average of three independent experiments
[2] = 10 nmol/200 μL peptide, Tris-HCl 25 mM pH 7.5, EIC peak areas, average of three independent experiments, listed as GDF11[48-64]ox
[3] = 10 nmol/200 μL peptide, Tris-HCl 25 mM pH 7.5, EIC peak areas, average of three independent experiments, listed as GDF11 wt

% fragment cleaved at L60 (Ac-...HTHL, lacking VQQA), percentage of the initial substrate [1] [%] | % fragment cleaved on carboxy side of H59 (Ac-...HTH, lacking LVQQA), percentage of the initial substrate [1] [%] | % fragment cleaved on carboxy side of Q62 (Ac-...HTHLVQ, lacking QA), percentage of the initial substrate [1] [%] | % intact peptide left after APEH exposure (percentage of the initial substrate) [1] [%] | % fragment cleaved at L60 (Ac-...HTHL, lacking VQQA), percentage of the initial substrate [2] | % fragment cleaved on carboxy side of H59 (Ac-...HTH, lacking LVQQA), percentage of the initial substrate [2] | % fragment cleaved on carboxy side of Q62 (Ac-...HTHLVQ, lacking QA), percentage of the initial substrate [2] | % fragment cleaved on carboxy side of H59 (Ac-...HTH, lacking LVQQA), percentage of the initial substrate [3] [%] | % fragment cleaved on carboxy side of Q62 (Ac-...HTHLVQ, lacking QA), percentage of the initial substrate [3] [%] | cleavage at H59 as % of the total processed peptide (Tris-HCl 25 mM pH 7.5) | cleavage at L60 as % of the total processed peptide (Tris-HCl 25 mM pH 7.5) | cleavage at Q62 as % of the total processed peptide (Tris-HCl 25 mM pH 7.5) | % Degradation (overall % of peptide degraded upon exposure to APEH) (10 nmol/200 μL peptide) [%] | % Degradation (overall % of peptide degraded upon exposure to APEH) (10 nmol/200 μL peptide, listed as GDF11[48-64]ox) | susceptibility to APEH endoprotease cleavage (in words) (Tris-HCl 25 mM pH 7.5) | Substance
8.4 | 25.6 | 16.4 | 49.6 | about 8% | about 26% | about 16% | ~28 | 18 | around 50% | about 17% | around 32% | 50.4 | around 50% |  | Ac-EYM(ox)FM(ox)QKYPHTHLVQQA-NH2 [GDF11[48-64] wt ox, GDF11[48-64]wt bearing sulphoxide groups on M50 and M52, by 3% H2O2 treatment]
 |  |  |  |  |  |  |  |  |  |  |  |  |  | No cleavage | Ac-EYMFMQKYPHTHLVQQA-NH2 [GDF11[48-64]wt, peptide reproducing the 48–64 region of GDF11 protein, acetylated and amidated]
